Measurements: US20230263729A1, “POLY(ETHYLENE GLYCOL)-BLOCK-POLY(PROPYLENE SULFIDE) NANOCARRIER PLATFORM FOR ENHANCED EFFICACY OF IMMUNOSUPPRESSIVE AGENTS” (Northwestern University, priority 2019, published 2023)
Values after ≈ are worked out from the molar mass of the structure shown. Where two headings read alike, the source gives them in different places.

What was measured:
atherosclerotic plaque = settings: orally to mice, total dose 4800 ng over 12 weeks; cited from earlier work
atherosclerotic lesions = assay: Atherosclerotic lesion quantification and immunohistochemistry after 8 weeks treatment; assay type: in vivo, ApoE−/− mice; settings: total aVD dose 800 ng over 8 weeks
Method: Treatment—Male ApoE^−/− mice at 8-weeks of age were fed a high-fat diet (HFD, Harlan Teklad TD.88137, 42% kcal from fat) for 4 weeks. Treatments were performed from week 12 and 100 μl of different treatments: 1, PBS (control); 2, free aVD (1 μg/ml); 3, PS-aVD; 4, P-D2-PEG5-PS-aVD; 5, P210/P-D2-PEG5-PS-aVD (2, 3, 4, 5 groups with the same aVD concentration of 1 μg/ml) were subsequently i.v. administrated every week for 8 weeks. During those weeks, mice were maintained on a high-fat diet, and the activities and body weight was monitored. In vivo experiments were performed with group sizes of N=5-6 mice per group and then independently repeated for a total of N=10-12 mice per group.
Atherosclerotic lesion quantification and immunohistochemistry—For atherosclerotic lesion analysis, mice were anesthetized and aortas were carefully harvested after perfusion with PBS under a microscope. The heart with ascending aorta was fixed with 4% paraformaldehyde (PFA)/5% sucrose in PBS solution 12 h at 4° C. […] For quantitative analysis of atherosclerotic lesions, 5-7 separate cross-sections from each mouse were stained with Oil Red 0 (ORO) (Sigma) for 1 h at 37° C. and 4′,6-diamidino-2-phenylindole (DAPI) for 5 min. […] An in-house software written in Python was developed for automated and quantitative image analysis (FIG. 16) […]

BMDCs = assay: BMDC activation and maturation in vitro (surface markers, IL12p70 ELISA); assay type: cell-based, C57BL/6 mice; settings: aVD 10^−8 M; LPS and IFN-γ stimulation
Method: Assessment of BMDC activation and maturation in vitro—BMDCs were cultured at a density of 1×10^6/ml and were incubated at 37° C. with 5% CO2 for 10 days. Free aVD, aVD-loaded PS (PS-aVD) or aVD-loaded P-D2-PEG5-PS (P-D2-PEG5-PS-aVD) with the aVD concentration of 10^−8 M were added when the media was refreshed on days 3 and 6. On day 7, 10 ng/ml murine recombinant interferon (IFN-γ) and 1 μg/ml LPS were added to stimulate dendritic cell maturation. At day 10, BMDCs were collected, washed with PBS and then incubated with anti-mouse CD16/CD32 to block FcRs and Zombie Aqua fixable viability dye to determine live/dead cells for 20 min. Cells were washed with PBS and stained with antibody cocktail (CD11c, […] CD80, and CD86) (Table 1) for 35 min at 4° C. BMDC maturation was determined by characterizing the cell surface marker expression using FACSDiva on a LSRII flow cytometer (BD Biosciences). Over 20,000 events were recorded for each sample and data were analyzed with FlowJo software. Different concentrations of P-D2-PEG5-PS-aVD (aVD concentration=0, 10^−9, and 10^−8 M) were also investigated on BMDC maturation using the same procedure described above. […] IL12p70 secretion in supernatant of the cell culture in the last 48 h were determined by enzyme-linked immunosorbent assay (ELISA) following the manufacturer's instructions (Fisher Thermo Scientific).

RAW 264.7 cells [1] = assay: Apoptosis of RAW 264.7 cells with or without LPS; assay type: cell-based; settings: 1 μg/mL celastrol, 4 h
Method: Celastrol has been investigated as a potential anti-cancer therapeutic due to its ability to induce cell death, and potentially binds to a number of proteins involved in apoptosis. As the manner of cell death can influence the downstream immune response, the onset of apoptosis upon treatment with celastrol was evaluated. Since NF-κB signalling in RAW 264.7 cells results in the secretion of TNF-α (FIG. 27C), an inducer of apoptosis in some contexts as well as cell survival and proliferation in others, the effect of the presence or absence of LPS during celastrol treatment on the induction of apoptosis or necrosis was assessed.

[2] = in vivo; cited from earlier work
NF-κB = NF-κB inhibition assay in RAW Blue cells (SEAP reporter); assay type: cell-based; settings: read-out: half maximal effective concentration (EC50), NF-κB inhibition
Method: Inhibition assays—NF-κB inhibition by celastrol was assayed using RAW Blue cells (Invivogen), a stably transfected cell line derived from RAW 264.7 macrophage-like cells, which contain the gene for secreted alkaline phosphatase (SEAP) downstream of the NF-κB promoter. Cells were seeded into a 96 well plate at 50,000 cells per well. NF-κB signalling was induced using 100 ng/mL LPS, with celastrol-loaded micelles and free celastrol (0.1% THF in 1×PBS vehicle) added to the cells concurrent with LPS administration. All micelle formulations contained the same amount of polymer (15 mg/mL) but were loaded with variable amounts of celastrol, and free celastrol formulations were prepared to match the concentration of loaded celastrol within Cel-MC formulations. Free celastrol formulation were made by diluting celastrol stock solutions in THF with 1×PBS to reach the appropriate celastrol concentration and 0.1% THF in 1×PBS. Cells were incubated for 16 hours, as per assay instructions, before supernatant was collected for quantification of SEAP activity, as described by the manufacturer. Colorimetric quantification of SEAP activity was performed on an M3 plate reader (SpectraMax) at an absorbance wavelength of 630 nm.

RAW 264.7 cells [3] = assay: Cytotoxicity assay (calcein-AM / ethidium homodimer); assay type: cell-based
Method: Cytotoxicity assays—RAW 264.7 cells were plated into a 96 well black wall plates at 50,000 cells per well. Cells were then treated with Cel-MC or free celastrol, formulated as described above for the inhibition assays. After 16 h of incubation with free celastrol or Cel-MC formulations, cells were washed and incubated with 4 μM calcein-AM and 2 μM ethidium homodimer (Thermo Fisher), as described by the manufacturer. Readings were performed on an M3 plate reader, at excitation/emission wavelengths of 488/530 nm and 488/635 nm for calcein and ethidium homodimer, respectively. Readings were normalized as described by the manufacturer, accounting for background fluorescence and setting 100% viability for untreated cells and 0% viability for cells incubated with 100% methanol for 15 minutes.

[4] = Celastrol quantification by HPLC: solubility, encapsulation efficiency, loading capacity, release; assay type: physicochemical
Method: Celastrol quantification—Celastrol solubility, encapsulation efficiency, and loading capacity were all assessed using high performance liquid chromatography (HPLC) using a Thermo Scientific C18 reverse phase column, with dimethylformamide (DMF) as the mobile phase at 0.5 mL/min. Area under the curve quantification of celastrol absorbance at 280 nm was performed using Thermo Fisher Chromeleon 7 software. A celastrol standard curve was constructed, with good linearity between celastrol concentrations of 2 mg/mL to 12.5 μg/mL, with 6.25 μg/mL being too close to the limit of detection for inclusion in the standard curve.
To determine the loading capacity of celastrol in micelles, defined here as the highest achievable mass of celastrol that can be stably loaded into 1 mg of micelles in 100 μL of 1×PBS, 1 mg of celastrol was added to 1 mg of PEG45-b-PPS20-Benzyl polymer in 500 uL THF in an HPLC vial. THF was removed by vacuum desiccation and micelles were formed via thin film rehydration with 100 μL of 1×PBS. […] Both samples (column filtered and unfiltered) were then lyophilized and redissolved in 200 μL DMF and celastrol content was quantified via HPLC.
To determine the encapsulation efficiency of celastrol in micelles, defined as the percentage of the originally added celastrol mass that is stably encapsulated in micelles after filtration to remove unencapsulated celastrol, micelles were formed as described above with variable amounts of celastrol, and were filtered using an LH-20 column. Filtered micelles were lyophilized and redissolved in 200 μL DMF and celastrol content was quantified via HPLC.
To determine the solubility of celastrol in aqueous buffer, 1 mg of celastrol was added to a glass vial along with 10 mL of 1×PBS. […] The lyophilized powder was resuspended in 200 μL DMF and celastrol was quantified via HPLC.
Celastrol release from micelles into 1×PBS with or without oxidative trigger was determined as follows. […] Absorbance at 424 nm, an absorbance peak for celastrol, were taken using a SpectraMax M3 plate reader using a 96-well plate.

Row | Compound | decrease in plaque area (atherosclerotic plaque) [%] | reduction in macrophage accumulation (atherosclerotic plaque) [%] | improvements in plaque area and macrophage content at the same dosage (atherosclerotic lesions) | expression of MHC-II, CD80 and CD86 by stimulated BMDCs (BMDCs) | apoptotic cells (RAW 264.7 cells [1]; in the absence of LPS) [%] | apoptotic cells (RAW 264.7 cells [1]; in the presence of LPS) [%] | serum half-life (T1/2β) [2] [h] | EC50 (NF-κB; 100 ng/mL LPS, 16 hours) [µg/mL] | EC50 (NF-κB; LPS) [µg/mL] | cell viability as the dosage of celastrol is decreased (RAW 264.7 cells [3]) | cytotoxicity to RAW 264.7 cells (RAW 264.7 cells [3]; 0.8 mg/mL celastrol) | theoretical solubility in nanocarriers, times higher than unencapsulated celastrol [4] | theoretical celastrol ‘solubility’ in 1×PBS when loaded in PEG-b-PPS nanocarriers ([4]; 200 mg/mL of polymer, loading capacity 22%) [µg/mL] | solubility at 1 h ([4]; aqueous buffer, thermodynamic from solid, detected in 1 mL of 1×PBS at 37 C, read-out: celastrol dissolved in aqueous buffer (solubility)) [µg/mL]
1 | C=C1/C(=C\C=C2/CCC[C@]3(C)[C@@H]([C@H](C)CCCC(C)(C)O)CC[C@@H]23)C[C@@H](O)C[C@@H]1O [aVD, 1, 25-Dihydroxyvitamin D3] | 39 | 29 | no | significantly decreased expression | – | – | – | – | – | – | – | – | – | –
2 | CC1=C(O)C(=O)C=C2C1=CC=C1[C@@]2(C)CC[C@@]2(C)[C@@H]3C[C@](C)(C(=O)O)CC[C@]3(C)CC[C@]12C [celastrol] | – | – | – | – | 16.5±1.8 | 37.5±4.4 | 8 to 10 | 0.2 (≈ 0.444 µM) | 0.2 (≈ 0.444 µM) | not | highly cytotoxic | over 10,000 times | 44000 | 3.5 (≈ 7.77 µM)
